The source of these data is ChEMBL document CHEMBL5046290, “Design, Synthesis, and Preclinical Profiling of GSK3739936 (BMS-986180), an Allosteric Inhibitor of HIV-1 Integrase with Broad-Spectrum Activity toward 124/125 Polymorphs” (J Med Chem, 2022).

The nature of data set [1]: Displacement of [3H](S)-2-(tert-butoxy)-2-(2-methyl-4-(p-tolyl)quinolin-3-yl)acetic acid from LEDGF-binding site of recombinant T124/T125 polymorphic HIV1 integrase by LIDIA assay. The arrangement: species or system Human immunodeficiency virus 1.
For data set [2], the system named is Human immunodeficiency virus 1. The data set is described as follows: Antiviral activity against recombinant HIV1 NLRep-Rluc harbouring polymorphic T124/T125 integrase infected in human MT-2 cells assessed as inhibition of virus growth in presence of fetal bovine serum by measuring luciferase activity after 5 days. The format is functional, organism-based, MT2.

Data set [3] in a line: Cytotoxicity against human MT2 cells assessed as cell viability measured after 4 days by XTT assay. It is filed as toxicity, cell-based. The following applies: time 4 day.
Data set [4] can be described thus: Metabolic stability in rat liver microsome assessed half life at 0.5 uM by LC-MS/MS analysis. The format is ADME. To be noted: liver microsomes.
Data set [5] can be described thus: Metabolic stability in human liver microsome assessed half life at 0.5 uM by LC-MS/MS analysis. The format is ADME. The following applies: liver microsomes.
Data set [6] is described as follows: Clearance in Sprague-Dawley rat at 1 mg/kg, iv by LC-MS/MS analysis. To be noted: in vivo. The format is ADME, organism-based.
The subject of data set [7] is Human immunodeficiency virus 1. The data set is described as follows: Antiviral activity against recombinant HIV1 NLRep-Rluc harbouring polymorphic AA infected in human MT-2 cells assessed as inhibition of virus growth in presence of fetal bovine serum by measuring luciferase activity after 5 days. It is filed as functional, organism-based. To be noted: Human immunodeficiency virus 1, NLRep, MT2, 120 h.

For data set [8], the system named is Human immunodeficiency virus 1. The data set is described as follows: Antiviral activity against recombinant HIV1 NLRep-Rluc harbouring polymorphic AT infected in human MT-2 cells assessed as inhibition of virus growth in presence of fetal bovine serum by measuring luciferase activity after 5 days. The format is functional, organism-based. The following applies: Human immunodeficiency virus 1, NLRep, MT2, 120 h.

The test system of data set [9] is Human immunodeficiency virus 1. The data set is described as follows: Antiviral activity against recombinant HIV1 NLRep-Rluc harbouring polymorphic NA infected in human MT-2 cells assessed as inhibition of virus growth in presence of fetal bovine serum by measuring luciferase activity after 5 days. It is filed as functional, organism-based. To be noted: Human immunodeficiency virus 1, NLRep, MT2, 120 h.

In data set [10] the test system is Human immunodeficiency virus 1. The data set is described as follows: Antiviral activity against recombinant HIV1 NLRep-Rluc harbouring polymorphic TA infected in human MT-2 cells assessed as inhibition of virus growth in presence of fetal bovine serum by measuring luciferase activity after 5 days. The format is functional, organism-based. The following applies: Human immunodeficiency virus 1, NLRep, MT2, 120 h.

For data set [11], the system named is Human immunodeficiency virus 1. Description: Antiviral activity against recombinant HIV1 NLRep-Rluc harbouring polymorphic NT infected in human MT-2 cells assessed as inhibition of virus growth in presence of fetal bovine serum by measuring luciferase activity after 5 days. The format is functional, organism-based. The following applies: Human immunodeficiency virus 1, NLRep, MT2, 120 h.

The subject of data set [12] is Human immunodeficiency virus 1. The data set is described as follows: Antiviral activity against recombinant HIV1 A128T-resitant mutant […] infected in human MT-2 cells assessed as inhibition of virus growth in presence of fetal bovine serum by measuring luciferase activity after 5 days. The following applies: Human immunodeficiency virus 1, MT2, 120 h. The format is functional, organism-based.

Data set [13] addresses T1, Solute carrier organic anion transporter family member 1B1 (Homo sapiens, UniProt Q9Y6L6).
T1 sequence (Q9Y6L6 whole entry): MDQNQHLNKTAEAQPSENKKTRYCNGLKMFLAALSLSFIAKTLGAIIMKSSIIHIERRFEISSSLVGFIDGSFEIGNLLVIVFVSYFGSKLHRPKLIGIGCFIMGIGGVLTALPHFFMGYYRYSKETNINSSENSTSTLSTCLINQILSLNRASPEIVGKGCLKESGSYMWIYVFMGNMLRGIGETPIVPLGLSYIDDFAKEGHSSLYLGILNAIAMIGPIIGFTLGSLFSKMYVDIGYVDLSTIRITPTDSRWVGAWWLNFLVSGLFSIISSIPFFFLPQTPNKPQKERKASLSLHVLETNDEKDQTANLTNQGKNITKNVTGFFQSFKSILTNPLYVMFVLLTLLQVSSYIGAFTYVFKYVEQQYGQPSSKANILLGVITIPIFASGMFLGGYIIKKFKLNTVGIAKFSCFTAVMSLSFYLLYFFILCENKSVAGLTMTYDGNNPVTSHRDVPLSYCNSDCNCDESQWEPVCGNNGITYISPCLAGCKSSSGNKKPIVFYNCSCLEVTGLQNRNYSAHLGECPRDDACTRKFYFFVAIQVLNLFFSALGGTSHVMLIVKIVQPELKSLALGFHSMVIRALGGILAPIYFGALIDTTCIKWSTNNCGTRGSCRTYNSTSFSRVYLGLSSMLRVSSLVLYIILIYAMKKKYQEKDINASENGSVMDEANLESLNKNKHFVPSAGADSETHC
Description: Inhibition of OATP1B1 (unknown origin). It is filed as ADME.

The test system of data set [14] is Human immunodeficiency virus 1. The data set is described as follows: Anti retroviral activity against HIV-1 NL4-3 harboring at AA polymorph infected in human MT4 cells by CellTitre-Glo luminescent reagent based assay. To be noted: Human immunodeficiency virus 1, NL4-3, MT4. The format is functional, organism-based.
Data set [15] has as its system Human immunodeficiency virus 1. Description: Anti retroviral activity against HIV-1 NL4-3 harboring at TA polymorph infected in human MT4 cells by CellTitre-Glo luminescent reagent based assay. The format is functional, organism-based. The following applies: Human immunodeficiency virus 1, NL4-3, MT4.
Data set [16] has as its system Human immunodeficiency virus 1. Description: Anti retroviral activity against HIV-1 NL4-3 harboring at AT polymorph infected in human MT4 cells by CellTitre-Glo luminescent reagent based assay. It is filed as functional, organism-based. To be noted: Human immunodeficiency virus 1, NL4-3, MT4.
The subject of data set [17] is Human immunodeficiency virus 1. Description: Anti retroviral activity against HIV-1 NL4-3 harboring at TT polymorph infected in human MT4 cells by CellTitre-Glo luminescent reagent based assay. The format is functional, organism-based. To be noted: Human immunodeficiency virus 1, NL4-3, MT4.
A short description of data set [18]: Stability in human liver microsome assessed as half life. The format is ADME. The following applies: liver microsomes.
For data set [19], the system named is Human immunodeficiency virus 1. The data set is described as follows: Anti retroviral activity against HIV-1 NL4-3 harboring at NT polymorph infected in human MT4 cells by CellTitre-Glo luminescent reagent based assay. The following applies: Human immunodeficiency virus 1, NL4-3, MT4. The format is functional, organism-based.
In data set [20] the test system is Human immunodeficiency virus 1. The data set is described as follows: Anti retroviral activity against HIV-1 NL4-3 harboring at NA polymorph infected in human MT4 cells by CellTitre-Glo luminescent reagent based assay. The format is functional, organism-based. To be noted: Human immunodeficiency virus 1, NL4-3, MT4.
Where [21] appears, read: Human immunodeficiency virus 1, NLRep, MT2, 120 h.

Some results are limits rather than exact numbers.

For `Cc1ncsc1CCOc1ccc(-c2c(C)nc(C)c([C@H](OC(C)(C)C)C(=O)O)c2N2CCC(C)(C)CC2)cc1`, the IC50 in [1] amounted to 12.7 nM. Further, the EC50 is 0.8 nM in [2] (setting [21]); 0.7 nM in data set [7]; 1 nM in data set [8]; 1.3 nM in data set [9]; 0.75 nM in data set [10]; 1 nM in data set [11]. Moreover, the concentration giving a half-maximal response (EC50) in [12] amounted to 107 nM. Also, the CC50 at 96 h in [3] is at least 25000 nM. Also, the results for the half-life at 0.5 µM in [4] and in data set [5] were over 120 min and 90 min, respectively. Besides, the clearance in data set [6] amounted to 69 mL/min/kg.
On to `Cc1nc(C)c([C@H](OC(C)(C)C)C(=O)O)c(N2CCC(C)(C)CC2)c1-c1ccc(OCCc2ccc(C#N)cc2)cc1`, for which the figures for the IC50 in [1] and in data set [13] were 13.3 nM and 100 nM, respectively. Moreover, the EC50 in [2] (setting [21]) was found to be 1.5 nM. Besides, in [3], the CC50 at 96 h was at least 33500 nM.
Consider `Cc1nc(C)c([C@H](OC(C)(C)C)C(=O)O)c(N2CCC(C)(C)CC2)c1-c1ccc(OCCc2ccc(F)c(F)c2)cc1`, for which the IC50 in [1] is 6.7 nM. Further, the EC50 in data set [2] (setting [21]) came out at 2.7 nM; in data set [7], 3.7 nM; in data set [8] it was 2.7 nM; in data set [9], 7 nM; in [10], 1.8 nM; in data set [11], 2.1 nM. The EC50 in data set [12] worked out at 255 nM. The CC50 at 96 h in [3] is at least 33500 nM. For the same molecule, the half-life at 0.5 µM in data set [4] is 51 min; in data set [5], over 120 min. In [6], this molecule displayed a clearance of 5.8 mL/min/kg.
As to `Cc1sc(-c2ccncc2)c(C2=CCC(C)(C)CC2)c1[C@H](OC(C)(C)C)C(=O)O`, the concentration for a half-maximal effect (EC50) in data set [14] came out at 1500 nM; in data set [15] it was 1600 nM; in data set [16], 14000 nM; in data set [17], 31 nM.
In the case of `Cc1nc(C)c([C@H](OC(C)(C)C)C(=O)O)c(N2CCC(C)(C)CC2)c1-c1ccc(OC2COCC2c2ccc(F)cc2)cc1` (stereo in doubt; 40b), the IC50 in data set [1] worked out at 7.9 nM. Further, the EC50 was determined as 0.6 nM in data set [2] (mt2); 1.7 nM in data set [7]; 1.3 nM in data set [8]; 3.7 nM in [9]; 0.92 nM in [10]; 0.53 nM in data set [11]. In addition, the EC50 in data set [12] was over 500 nM. The half-life at 0.5 µM in data set [4] was over 120 min; in data set [5], 47 min. This molecule registered a clearance in data set [6] of 23.4 mL/min/kg. In addition, the half-life in [18] was 47 min.
For the molecule `Cc1nc2ccccc2c(-c2ccc3c4c(ccnc24)CCO3)c1[C@H](OC(C)(C)C)C(=O)O` [BI-224436], the EC50 in [19] worked out at 32 nM; in [14], 32 nM; in data set [15], 32 nM; in [16] it was 32 nM; in data set [17], 32 nM; in [2] (setting [21]), 49 nM. The EC50 in data set [7] is 28.1 nM; in data set [8], 48.7 nM; in [9], 49.1 nM; in [10], 49.5 nM; in [11], 56.3 nM; in data set [12] it was over 500 nM. Further, the EC50 in data set [20] worked out at 32 nM.
